Experimental data from publication PMC7351949, “Molecular basis for the distinct functions of redox-active and FeS-transfering glutaredoxins” (Nature Communications, 2020).

Experiments:
Grx2 = target: T1, Grx2 (Homo sapiens, UniProt Q9NS18); assay: UV/Vis spectroscopy of reconstituted holo-complex; type: binding; settings: bridges a dimer, co-ligated by two GSH; reconstituted with GSH, cysteine, iron and IscS, pH 8.0
T1 construct: gene GLRX2; Grx2c, His-tagged, recombinant from E. coli, IMAC purified; monomeric apo form, dimeric as Fe2S2 holo-complex
T1 sequence (Q9NS18 1-165 isoform Q9NS18-2): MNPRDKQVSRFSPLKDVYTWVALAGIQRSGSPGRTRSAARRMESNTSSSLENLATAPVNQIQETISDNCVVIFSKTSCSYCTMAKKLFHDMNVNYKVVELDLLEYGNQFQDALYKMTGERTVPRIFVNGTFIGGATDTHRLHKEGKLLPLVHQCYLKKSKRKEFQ

Grx5 = target: T2, Grx5 (Homo sapiens, UniProt Q86SX6); assay: UV/Vis spectroscopy of reconstituted holo-complex; type: binding; settings: bridges a dimer, co-ligated by two GSH; reconstituted with GSH, cysteine, iron and IscS, pH 8.0
T2 construct: gene GLRX5; transit peptide removed (forward primer encodes M-GSGAG...), pET15b, His-tagged, recombinant from E. coli, IMAC purified; dimeric as Fe2S2 holo-complex
T2 sequence (Q86SX6 33-157): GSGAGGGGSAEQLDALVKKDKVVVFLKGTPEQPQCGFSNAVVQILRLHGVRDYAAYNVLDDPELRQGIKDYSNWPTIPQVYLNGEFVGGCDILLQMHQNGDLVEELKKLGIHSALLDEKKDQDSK

AtGrxC1 = target: T3, AtGrxC1 (Arabidopsis thaliana, UniProt Q8L8T2); assay: HED assay, NADPH / glutathione reductase coupled; type: biochemical; settings: read-out: HED assay / Km app (HED) / μM; 1 mM GSH, 200 µM NADPH, yeast glutathione reductase, 100 mM potassium phosphate pH 7.8; actual substrate is the mixed disulfide βME-SG formed from HED and GSH
T3 construct: gene GRXC1; His-tagged, recombinant, IMAC purified
T3 sequence (Q8L8T2 whole entry): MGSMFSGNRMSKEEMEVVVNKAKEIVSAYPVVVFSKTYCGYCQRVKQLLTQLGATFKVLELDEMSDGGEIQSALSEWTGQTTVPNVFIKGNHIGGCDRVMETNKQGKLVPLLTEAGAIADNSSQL
Excerpt: HED assay, NADPH / glutathione reductase coupled on AtGrxC1

[S]1[Fe][S][Fe]1 [Fe2S2 cluster]
UV/Vis spectroscopy of reconstituted holo-complex (Grx2): The UV/VIS spectra (Fig. 4a) demonstrate the ability of all proteins to form FeS
UV/Vis spectroscopy of reconstituted holo-complex (Grx5): The UV/VIS spectra (Fig. 4a) demonstrate the ability of all proteins to form FeS

OCCSSCCO [HED]
Km (AtGrxC1): 773 ± 164 µM
